The values below come from patent US11173145B2, “Compounds useful as inhibitors of indoleamine 2,3-dioxygenase and/or tryptophan dioxygenase” (Board of Regents, The University of Texas System, priority 2017, dated 2021).

One experiment concerns the target T1, mouse IDO1 (Mus musculus, UniProt P28776).
T1 construct: The murine PANC02 pancreatic ductal adenocarcinoma cell line was routinely maintained in DMEM media; endogenous in cells; host or cells: PANC02 murine pancreatic ductal adenocarcinoma cells, induced with mouse IFNgamma
Briefly: Mouse IDO1 cell-based assay (PANC02 cells, mouse IFNgamma-induced, N-formylkynurenine/L-tryptophan by RFMS). The note with it: 30 ng/mL mouse IFNgamma, 48 hours. The protocol:
The murine PANC02 pancreatic ductal adenocarcinoma cell line was routinely maintained in DMEM media containing 10% FBS. Cells (3,000/well) were seeded onto a 384 well plate in 50 μl of media and incubated at 37° C., 5% CO2 overnight. Cell media was aspirated, fresh media containing 30 ng/mL mouse IFNgamma (Gibco Life Technologies, cat #PMC4031) was added, and cells were incubated in absence or presence of various concentrations of compounds (final 0.5% DMSO) for 48 hours at 37° C., 5% CO2. Aliquots of the cell conditioned media was removed from the cell plate, and mixed with equal volume of 200 mM ZnSO4 to precipitate media containing protein. Two volumes of acetonitrile were added by mixing, and samples were then centrifuged at 2250G for 20 minutes at 4° C. Aliquots of the supernatant were diluted 1:10 in 0.1% formic acid containing 3 μM of deuterated Tryptophan as an internal standard.
Samples were analyzed via RFMS to quantify N-Formyl Kynurenine (AUC) and L-tryptophan (AUC). A C18 cartridge was used with mobile phases of 0.1% Formic Acid and 80% ACN/0.1% Formic Acid under isocratic conditions. Dose-response curves were analyzed using IC50 regression curve fitting (GeneData Screener). Curves were plotted as percent of control and normalized by high controls without inhibitor (100%), and low controls (0%) containing 1 μM of epacadostat. Cell viability was also assessed using the Cell Titer Glo Kit (Promega) following manufacture recommendation.

In another experiment the target is T2, IDO1 (Homo sapiens, UniProt P14902).
T2 construct: endogenous in cells; host or cells: HeLa cells (ATCC), IFNgamma-induced
The experiment can be described thus: IDO1 cell-based assay (HeLa cells, IFNgamma-induced, N-formylkynurenine/L-tryptophan by RFMS). The note with it: 10 ng/mL IFNgamma, 24 hours. Summed up:
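N-formylkynurenine and tryptophan peak areas in media measured by RFMS (C18, isocratic, d-Trp standard), giving IC50 values by regression. Source: HeLa cells incubated 24 h with IFNgamma (10 ng/mL) plus test compound at 0.5% DMSO; parallel CellTiter-Glo viability read.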

The structures appear in SMILES notation. Where only a bound is given, the exact number is not on record here.

T1 sequence (P28776 whole entry): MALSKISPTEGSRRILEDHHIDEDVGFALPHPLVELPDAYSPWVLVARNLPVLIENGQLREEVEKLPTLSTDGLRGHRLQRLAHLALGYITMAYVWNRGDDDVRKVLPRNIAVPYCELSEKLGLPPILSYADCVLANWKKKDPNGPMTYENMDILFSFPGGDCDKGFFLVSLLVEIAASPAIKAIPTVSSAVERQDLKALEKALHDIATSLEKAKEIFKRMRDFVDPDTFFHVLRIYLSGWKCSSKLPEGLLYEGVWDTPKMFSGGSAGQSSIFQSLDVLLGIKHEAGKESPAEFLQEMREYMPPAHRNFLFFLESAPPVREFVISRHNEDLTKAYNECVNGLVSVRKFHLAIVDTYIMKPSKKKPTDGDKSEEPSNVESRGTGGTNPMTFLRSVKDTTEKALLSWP
T2 sequence (P14902 whole entry): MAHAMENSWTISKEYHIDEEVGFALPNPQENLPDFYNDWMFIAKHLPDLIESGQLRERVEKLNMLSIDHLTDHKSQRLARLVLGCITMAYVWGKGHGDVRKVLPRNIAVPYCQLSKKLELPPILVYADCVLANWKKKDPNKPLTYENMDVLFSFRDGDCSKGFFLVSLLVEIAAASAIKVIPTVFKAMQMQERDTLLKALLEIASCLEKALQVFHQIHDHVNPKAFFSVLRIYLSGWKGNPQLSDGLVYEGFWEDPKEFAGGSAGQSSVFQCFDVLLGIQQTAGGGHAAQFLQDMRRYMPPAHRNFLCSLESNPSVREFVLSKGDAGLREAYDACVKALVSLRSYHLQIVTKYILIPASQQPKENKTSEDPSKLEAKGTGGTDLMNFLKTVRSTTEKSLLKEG

With `CCC(NC(=O)c1ccc(Cl)cc1)[C@H]1[C@@H]2C[C@H](n3cc(COC)nn3)C[C@@H]21` (stereo partly drawn) [Compound 214, 4-chloro-N-(1-((1R,3r,5S,6r)-3-(4-(methoxymethyl)-1H-1,2,3-triazol-1-yl)bicyclo[3.1.0]hexan-6-yl)propyl)benzamide], the IC50 – broadly, the point on the concentration scale where inhibition reaches its midpoint – against mouse IDO1 is less than 500 nM; at IDO1 it was less than 200 nM.
For the compound `CCC(NC(=O)c1ccc(Cl)cc1)[C@H]1[C@@H]2C[C@@H](n3ncc4ccc(F)cc43)C[C@@H]21` (stereo partly drawn) [Compound 162, 4-chloro-N-(1-((1R,3s,5S,6r)-3-(6-fluoro-1H-indazol-1-yl)bicyclo[3.1.0]hexan-6-yl)propyl)benzamide], the values for the IC50 at mouse IDO1 and on IDO1 were 500 to 2000 nM and less than 200 nM, respectively.
For `CCC(NC(=O)c1ccc(Cl)cc1)[C@H]1[C@@H]2C[C@@H](n3ncc4cccc(F)c43)C[C@@H]21` (stereo partly drawn) [Compound 206, 4-chloro-N-(1-((1R,3s,5S,6r)-3-(7-fluoro-1H-indazol-1-yl)bicyclo[3.1.0]hexan-6-yl)propyl)benzamide] the same measures were 500 to 2000 nM and less than 200 nM.
Regarding `CCC(NC(=O)c1ccc(Cl)cc1)[C@H]1[C@@H]2C[C@@H](n3cc4c(F)cccc4n3)C[C@@H]21` (stereo partly drawn) [Compound 209, 4-chloro-N-(1-((1R,3s,5S,6r)-3-(4-fluoro-2H-indazol-2-yl)bicyclo[3.1.0]hexan-6-yl)propyl)benzamide], the IC50 against mouse IDO1 is less than 500 nM; against IDO1, less than 200 nM.
For the compound `CCC(NC(=O)c1ccc(Cl)cc1)[C@H]1[C@@H]2C[C@@H](NC(=O)c3nccc(C(F)(F)F)c3Cl)C[C@@H]21` (stereo partly drawn) [Compound 158, 3-chloro-N-((1R,3s,5S,6r)-6-(1-(4-chlorobenzamido)propyl)bicyclo[3.1.0]hexan-3-yl)-4-(trifluoromethyl)picolinamide], the IC50 against mouse IDO1 is 500 to 2000 nM; on IDO1, less than 200 nM.
For `CCC(NC(=O)c1ccc(Cl)cc1)[C@H]1[C@@H]2C[C@@H](n3c(=O)[nH]c4cc(F)ccc43)C[C@@H]21` (stereo partly drawn) [Compound 192, 4-chloro-N-(1-((1R,3s,5S,6r)-3-(5-fluoro-2-oxo-2,3-dihydro-1H-benzo[d]imidazol-1-yl)bicyclo[3.1.0]hexan-6-yl)propyl)benzamide] the same measures were 500 to 2000 nM and 200 to 2000 nM.
As for `CCC(NC(=O)c1ccc(Cl)cc1)[C@H]1[C@@H]2C[C@@H](n3cccc4ncnc3-4)C[C@@H]21` (stereo partly drawn) [Compound 182, N-(1-((1R,3s,5S,6r)-3-(4H-imidazo[4,5-b]pyridin-4-yl)bicyclo[3.1.0]hexan-6-yl)propyl)-4-chlorobenzamide], the half-inhibitory concentration (IC50) is more than 5000 nM against mouse IDO1 and 200 to 2000 nM against IDO1.
For `O=C(NCc1ccc(Cl)cc1)[C@@H]1[C@@H]2CN(c3ncnc4ccc(F)cc34)C[C@@H]21` [Compound 249, (1R,5S,6s)-N-(4-chlorobenzyl)-3-(6-fluoroquinazolin-4-yl)-3-azabicyclo[3.1.0]hexane-6-carboxamide], the concentration for half-maximal inhibition (IC50) against mouse IDO1 and on IDO1 was more than 5000 nM each time.
Regarding `CCC(NC(=O)c1ccc(Cl)cc1)[C@H]1[C@@H]2C[C@@H](n3nc4ccc(Br)cc4n3)C[C@@H]21` (stereo partly drawn) [Compound 179, N-(1-((1R,3s,5S,6r)-3-(5-bromo-2H-benzo[d][1,2,3]triazol-2-yl)bicyclo[3.1.0]hexan-6-yl)propyl)-4-chlorobenzamide], the values for the IC50 on mouse IDO1 and against IDO1 were 2000 to 5000 nM and less than 200 nM, respectively.
On mouse IDO1, `CCC(NC(=O)c1ccc(Cl)cc1)[C@H]1[C@@H]2C[C@@H](n3cnc4ccncc43)C[C@@H]21` (stereo partly drawn) [Compound 197, N-(1-((1R,3s,5S,6r)-3-(3H-imidazo[4,5-c]pyridin-3-yl)bicyclo[3.1.0]hexan-6-yl)propyl)-4-chlorobenzamide] displayed an IC50 of more than 5000 nM.
Same read-out and setting: with `CCC(NC(=O)c1ccc(Cl)cc1)[C@H]1[C@@H]2C[C@@H](n3cnc4ccc(F)cc43)C[C@@H]21` (some centres unmarked) [Compound 125] the figure was less than 500 nM.
With `CC[C@@H](NC(=O)c1ccc(Cl)cc1)[C@H]1[C@@H]2C[C@@H](n3cnc4ccc(F)cc43)C[C@@H]21` [Compound 247, 4-chloro-N—((R)-1-((1R,3S,5S, 6r)-3-(6-fluoro-1H-benzo[d]imidazol-1-yl)bicyclo[3.1.0]hexan-6-yl)propyl)benzamide], the IC50 against mouse IDO1 is less than 500 nM.
`Cc1cccc(C(=O)NC[C@@H]2[C@H]3C[C@H](n4cnc5cc(F)c(F)cc54)C[C@@H]23)c1` [Compound 323, N-(((1R,3s,5S,6r)-3-(5,6-difluoro-1H-benzo[d]imidazol-1-yl)bicyclo[3.1.0]hexan-6-yl)methyl)-3-methylbenzamide] came in with an IC50 at IDO1 of 200 to 2000 nM.
For `CC[C@@H](NC(=O)N1CC(F)(F)C1)[C@H]1[C@@H]2C[C@@H](n3cnc4cc(F)c(F)cc43)C[C@@H]21` [Compound 354, N-((R)-1-((1R,3S,5S,6r)-3-(5,6-difluoro-1H-benzo[d]imidazol-1-yl)bicyclo[3.1.0]hexan-6-yl)propyl)-3,3-difluoroazetidine-1-carboxamide], the half-maximal inhibitory concentration (IC50) at IDO1 lay within 200 to 2000 nM.
`CC(C(=O)Nc1ccc(Cl)cc1)[C@H]1[C@@H]2C[C@@H](Oc3ccnc4ccc(F)cc34)C[C@@H]21` (stereo partly drawn) [Compound 347, N-(4-chlorophenyl)-2-((1R,3s,5S,6r)-3-((6-fluoroquinolin-4-yl)oxy)bicyclo[3.1.0]hexan-6-yl)propanamide] gave an IC50 on IDO1 of less than 200 nM.
As for `O=C(Nc1ccc(Cl)cc1)C1[C@H]2CC(Oc3ccnc4ccccc34)C[C@@H]12` (stereo partly drawn) [Compound 8, (1R,5S)-N-(4-chlorophenyl)-3-(quinolin-4-yloxy)bicyclo[3.1.0]hexane-6-carboxamide], the IC50 against IDO1 was in the range of 2000 to 5000 nM.
On to `CC[C@@H](NC(=O)c1cccc(Cl)c1)[C@H]1[C@@H]2C[C@@H](n3cnc4cc(F)c(F)cc43)C[C@@H]21` [Compound 310, 3-chloro-N-((R)-1-((1R,3S,5S,6r)-3-(5,6-difluoro-1H-benzo[d]imidazol-1-yl)bicyclo[3.1.0]hexan-6-yl)propyl)benzamide], for which the IC50 against IDO1 is less than 200 nM.
Turning to `CCC(NC(=O)c1ccc(Cl)cc1)[C@H]1[C@@H]2C[C@@H](Oc3cccc4cccnc34)C[C@@H]21` (stereo partly drawn) [Compound 43, 4-chloro-N-(1-((1R,3s,5S,6r)-3-(quinolin-8-yloxy)bicyclo[3.1.0]hexan-6-yl)propyl)benzamide], at IDO1, the IC50 was less than 200 nM.
On mouse IDO1, `CC[C@H](NC(=O)c1ccc(Cl)cc1)[C@H]1[C@@H]2C[C@@H](n3cnc4ccc(F)cc43)C[C@@H]21` [Compound 248, 4-chloro-N—((S)-1-((1R,3S,5S,6r)-3-(6-fluoro-1H-benzo[d]imidazol-1-yl)bicyclo[3.1.0]hexan-6-yl)propyl)benzamide] returned a 50% inhibitory concentration (IC50) of less than 500 nM.
On IDO1, `CC(NC(=O)c1ccc(C#N)cc1)C1[C@H]2CC(O)C[C@@H]12` (stereo partly drawn) [Compound 106, 4-cyano-N-(1-((1R,3s,5S,6r)-3-hydroxybicyclo[3.1.0]hexan-6-yl)ethyl)benzamide] came in with an IC50 of more than 5000 nM.
As for `CC[C@@H](NC(=O)c1ccc(Cl)cc1)[C@H]1[C@@H]2C[C@@H](NC(=O)c3ccccn3)C[C@@H]21` [Compound 333, N-((1R,3S,5S,6r)-6-((R)-1-(4-chlorobenzamido)propyl)bicyclo[3.1.0]hexan-3-yl)picolinamide], the IC50 against IDO1 was less than 200 nM.
At IDO1, `C#Cc1ccc2ncnc(N[C@@H]3C[C@@H]4[C@H](C3)[C@H]4[C@@H](CC)NC(=O)c3ccc(Cl)cc3)c2c1` [Compound 337, 4-chloro-N-((R)-1-((1R,3S,5S,6r)-3-((6-ethynylquinazolin-4-yl)amino)bicyclo[3.1.0]hexan-6-yl)propyl)benzamide] displayed a concentration for half-maximal inhibition (IC50) of less than 200 nM.
Take `O=C(NC[C@@H]1[C@H]2C[C@H](n3cnc4cc(F)c(F)cc43)C[C@@H]12)c1cccc(Cl)c1` [Compound 316, 3-chloro-N-(((1R,3s,5S,6r)-3-(5,6-difluoro-1H-benzo[d]imidazol-1-yl)bicyclo[3.1.0]hexan-6-yl)methyl)benzamide]: the IC50 against IDO1 was in the range of 200 to 2000 nM.
On IDO1, `COc1ccc(C(=O)NC(C)[C@H]2[C@@H]3C[C@@H](O)C[C@@H]32)cn1` (stereo partly drawn) [Compound 128, N-(1-((1R,3s,5S,6r)-3-hydroxybicyclo[3.1.0]hexan-6-yl)ethyl)-6-methoxynicotinamide] yielded a concentration for half-maximal inhibition (IC50) of more than 5000 nM.
As to `O=C(Cc1ccc(Cl)cc1)NC1C2CN(c3ccnc4ccc(F)cc34)CC21` (centres unmarked) [Compound 109, 2-(4-Chlorophenyl)-N-(3-(6-fluoroquinolin-4-yl)-3-azabicyclo[3.1.0]hexan-6-yl)acetamide], the IC50 at IDO1 was more than 5000 nM.
`CCC(NC(=O)c1ccc(Cl)cc1)[C@H]1[C@@H]2C[C@@H](NC(=O)c3cnccn3)C[C@@H]21` (stereo partly drawn) [Compound 152, N-((1R,3s,5S,6r)-6-(1-(4-chlorobenzamido)propyl)bicyclo[3.1.0]hexan-3-yl)pyrazine-2-carboxamide] registered an IC50 against IDO1 of less than 200 nM.
